Several values for one entry are separate records, joined by “and”; a condition that tells them apart may be missing. Identical values can stand only once. Like-named read-outs stand apart in the source and are kept apart here.
Molecular target: NLRP3 inflammasome (Homo sapiens (Human), UniProt Q96P20)
Test: Evaluation of NLRP3 inflammasome inhibitory activity (inhibition of IL-1β production in THP1-Null cells, LPS/Nigericin)
[1] = inhibition of IL-1β production in THP1-Null cells

Sequence of NLRP3 inflammasome (Q96P20 whole entry): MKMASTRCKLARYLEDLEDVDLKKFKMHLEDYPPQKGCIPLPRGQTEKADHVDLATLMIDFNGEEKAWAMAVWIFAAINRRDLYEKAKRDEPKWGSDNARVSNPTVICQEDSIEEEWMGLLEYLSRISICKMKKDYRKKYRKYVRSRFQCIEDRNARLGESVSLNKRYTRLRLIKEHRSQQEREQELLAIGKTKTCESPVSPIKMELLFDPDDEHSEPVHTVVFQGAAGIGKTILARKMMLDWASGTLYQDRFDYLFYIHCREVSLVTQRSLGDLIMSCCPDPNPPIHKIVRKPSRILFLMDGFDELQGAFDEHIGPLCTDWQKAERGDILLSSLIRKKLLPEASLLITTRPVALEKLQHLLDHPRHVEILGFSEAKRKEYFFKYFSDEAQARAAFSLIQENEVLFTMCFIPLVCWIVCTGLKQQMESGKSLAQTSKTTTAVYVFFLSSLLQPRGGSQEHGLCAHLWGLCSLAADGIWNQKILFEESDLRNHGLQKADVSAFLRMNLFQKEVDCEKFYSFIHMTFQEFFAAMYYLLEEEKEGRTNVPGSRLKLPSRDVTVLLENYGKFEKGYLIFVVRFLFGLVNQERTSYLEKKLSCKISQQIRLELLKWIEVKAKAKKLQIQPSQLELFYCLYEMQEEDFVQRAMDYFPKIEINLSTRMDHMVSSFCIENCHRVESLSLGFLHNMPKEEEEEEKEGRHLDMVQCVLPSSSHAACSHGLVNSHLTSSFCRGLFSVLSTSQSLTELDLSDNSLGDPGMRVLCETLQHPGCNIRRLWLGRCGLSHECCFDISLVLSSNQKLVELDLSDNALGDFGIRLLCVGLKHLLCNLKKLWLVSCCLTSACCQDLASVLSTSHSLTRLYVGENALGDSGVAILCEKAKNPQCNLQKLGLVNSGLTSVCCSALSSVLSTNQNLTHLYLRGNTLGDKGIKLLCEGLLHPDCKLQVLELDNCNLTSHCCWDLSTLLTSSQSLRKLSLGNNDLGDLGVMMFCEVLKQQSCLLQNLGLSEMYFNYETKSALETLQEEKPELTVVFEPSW

SMILES | IC50 [nM] | IC50 [1]
COC(=O)C1COCCN1S(=O)(=O)NC(=O)c1coc(Nc2c3c(c(Cl)c4c2CCC4)CCC3)n1 (racemic) [Example 72] | 310 | –
COC(=O)CC1COCCN1S(=O)(=O)NC(=O)c1coc(Nc2c3c(c(Cl)c4c2CCC4)CCC3)n1 (racemic) [Example 73] | 160 | –
CN(C)C1CCN(S(=O)(=O)NC(=O)c2coc(Nc3c4c(c(F)c5c3CCC5)CCC4)n2)C1 (racemic) [Example 74] | 180 | –
Cc1ccc(C(F)F)cc1Nc1nc(C(=O)NS(=O)(=O)N(C)C)co1 [Example 2-010] | – | 120 nM
O=C(NS(=O)(=O)N1CCOCC1)c1csc(Nc2c3c(cc4c2CCC4)CCC3)n1 [Example 2-012] | – | 60 nM and < 30 nM
CC(C)n1nc2c(c1Nc1nc(C(=O)NS(=O)(=O)N(C)C)co1)CCC2 [Example 2-014] | – | 6000 nM
Cc1ccc(S(F)(F)(F)(F)F)cc1Nc1nc(C(=O)NS(=O)(=O)N(C)C)co1 [Example 2-034] | – | 100 nM
Cc1cn(C(C)C)nc1Nc1nc(C(=O)NS(=O)(=O)N(C)C)co1 [Example 2-039] | – | 500 nM
Cc1ccc(C2CC2)cc1Nc1nc(C(=O)NS(=O)(=O)N2CCCOCC2)co1 [Example 2-042] | – | 56 nM
Cc1ccc(C2(C)CC2)cc1Nc1nc(C(=O)NS(=O)(=O)N(C)C)co1 [Example 2-044] | – | 60 nM
Cc1ccc(C(C)C)cc1Nc1nc(C(=O)NS(=O)(=O)N2CCCOCC2)co1 [Example 2-047] | – | < 30 nM
Cc1ccc(C(C)C)cc1Nc1nc(C(=O)NS(=O)(=O)N(C)C)cs1 [Example 2-054] | – | 52 nM
Cc1ccc(C(C)C)cc1Nc1nc(C(=O)NS(=O)(=O)N2CCOCC2)cs1 [Example 2-055] | – | < 30 nM
Cc1ccc(C(C)C)cc1Nc1nc(C(=O)NS(=O)(=O)N2CCCOCC2)cs1 [Example 2-056] | – | < 30 nM

Now from value to compound:

IC50 [nM] | IC50 [1] | SMILES
– | 72 nM | COC1COCCN(S(=O)(=O)NC(=O)c2coc(Nc3cc(C(F)(F)F)ccc3C)n2)C1 (single isomer, unassigned) [Example 2-218]
– | 29 nM | COC1COCCN(S(=O)(=O)NC(=O)c2coc(Nc3cc(C(F)(F)F)ccc3C)n2)C1 (single isomer, unassigned) [Example 2-219]
– | 63 nM | Cc1ccc(C2CC2)cc1Nc1nc(C(=O)NS(=O)(=O)N2CCOCC2)co1 [Example 2-001]
– | < 30 nM | Cc1ccc(C(F)(F)F)cc1Nc1nc(C(=O)NS(=O)(=O)N2CCC(S(=O)(=O)NC(C)C)CC2)co1 [Example 2-007]
– | 64 nM | Cc1ccc(C(C)(F)F)cc1Nc1nc(C(=O)NS(=O)(=O)N(C)C)co1 [Example 2-013]
– | 38 nM | Cc1ccc(C(C)(F)F)cc1Nc1nc(C(=O)NS(=O)(=O)N2CCOCC2)co1 [Example 2-015]
– | 180 nM | Cc1ccc(C(F)(F)F)cc1Nc1nc(C(=O)NS(=O)(=O)N2CCCNCC2)co1 [Example 2-029]
– | 150 nM | CC(=O)NC1CCN(S(=O)(=O)NC(=O)c2coc(Nc3cc(C(F)(F)F)ccc3C)n2)CC1 [Example 2-033]
– | 220 nM | Cc1ccc(C2CC2)cc1Nc1nc(C(=O)NS(=O)(=O)N(C)C)co1 [Example 2-035]
– | 2700 nM | Cc1ccc(C(F)(F)F)cc1Nc1nc(C(=O)NS(=O)(=O)NC2CCOCC2)co1 [Example 2-037]
– | 49 nM | Cc1ccc(C(F)F)cc1Nc1nc(C(=O)NS(=O)(=O)N2CCCOCC2)co1 [Example 2-043]
– | 320 nM | Cc1ccc(C(F)(F)F)cc1Nc1nc(C(=O)NS(=O)(=O)NC(C)C)co1 [Example 2-046]
– | < 30 nM | COCCN(C(C)C)S(=O)(=O)NC(=O)c1coc(Nc2cc(C(F)(F)F)ccc2C)n1 [Example 2-048]
– | 46 nM | COCC1CN(S(=O)(=O)NC(=O)c2coc(Nc3cc(C(F)(F)F)ccc3C)n2)CCO1 (stereo not shown) [Example 2-049]
– | 600 nM | Cc1ccc(C(F)(F)F)cc1Nc1nc(C(=O)NS(=O)(=O)N2CCNC(=O)CC2)co1 [Example 2-050]
– | 570 nM | COC1CN(S(=O)(=O)NC(=O)c2coc(Nc3cc(C(F)(F)F)ccc3C)n2)C1 [Example 2-057]
– | < 30 nM | CCc1ccc(C(F)(F)F)cc1Nc1nc(C(=O)NS(=O)(=O)N2CCCOCC2)co1 [Example 2-059]

From US20230399319A1, “Acylsulfamide Compound and Pharmaceutical Use Therefor” (Japan Tobacco Inc., priority 2019, published 2023)
